Assay results as given in PubChem BioAssay AID1845217 (Molecular Pharmacology Branch, DTP, NCI, 2023).
pIC50: −log10 of the molar value.

Test system: VA-ES-BJ tumor spheroid viability
Test: Anticancer human tumor VA-ES-BJ cell line growth inhibition;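 further: spheroids exposed to compounds for seven days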;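 on viability, T/C: percent of DMSO vehicle control viability so 100% = untreated growth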
Conditions: spheroids with HUVEC and MSC; for pIC50: curve of first compound; for viability, T/C: stronger effect = lower value
Summary of the method: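 Single agents and combinations were tested on spheroids built from tumor cells plus HUVEC and hMSC, at half-log dilutions starting at or near clinical Cmax, else 10 microM; final DMSO 0.25% (v/v).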

[1] = second compound 0.003 µM, first compound 0.0316 µM
[2] = second compound 0.003 µM, first compound 0.1 µM
[3] = second compound 0.003 µM, first compound 0.316 µM
[4] = second compound 0.003 µM, first compound 1 µM
[5] = second compound 0.003 µM, first compound 3.16 µM
[6] = second compound 0.003 µM, first compound 10 µM
[7] = second compound 0.00949 µM, first compound 0.0316 µM
[8] = second compound 0.00949 µM, first compound 0.1 µM
[9] = second compound 0.00949 µM, first compound 0.316 µM
[10] = second compound 0.00949 µM, first compound 1 µM
[11] = second compound 0.00949 µM, first compound 3.16 µM
[12] = second compound 0.00949 µM, first compound 10 µM
[13] = second compound 0.03 µM, first compound 0.0316 µM
[14] = second compound 0.03 µM, first compound 0.1 µM
[15] = second compound 0.03 µM, first compound 0.316 µM
[16] = second compound 0.03 µM, first compound 1 µM
[17] = second compound 0.03 µM, first compound 3.16 µM
[18] = second compound 0.03 µM, first compound 10 µM
[19] = second compound 0.0949 µM, first compound 0.0316 µM
[20] = second compound 0.0949 µM, first compound 0.1 µM
[21] = second compound 0.0949 µM, first compound 0.316 µM
[22] = second compound 0.0949 µM, first compound 1 µM
[23] = second compound 0.0949 µM, first compound 3.16 µM
[24] = second compound 0.0949 µM, first compound 10 µM
[25] = second compound 0.3 µM, first compound 0.0316 µM
[26] = second compound 0.3 µM, first compound 0.1 µM
[27] = second compound 0.3 µM, first compound 0.316 µM
[28] = second compound 0.3 µM, first compound 1 µM
[29] = second compound 0.3 µM, first compound 3.16 µM
[30] = second compound 0.3 µM, first compound 10 µM

| SMILES | pIC50 (second compound 0.003 µM) | pIC50 (second compound 0.00949 µM) | pIC50 (second compound 0.03 µM) | pIC50 (second compound 0.0949 µM) | pIC50 (second compound 0.3 µM) | viability, T/C [1] [%] | viability, T/C [2] [%] | viability, T/C [3] [%] | viability, T/C [4] [%] | viability, T/C [5] [%] | viability, T/C [6] [%] | viability, T/C [7] [%] | viability, T/C [8] [%] | viability, T/C [9] [%] | viability, T/C [10] [%] | viability, T/C [11] [%] | viability, T/C [12] [%] | viability, T/C [13] [%] | viability, T/C [14] [%] | viability, T/C [15] [%] | further results |
| --- | --- | --- | --- | --- | --- | --- | --- | --- | --- | --- | --- | --- | --- | --- | --- | --- | --- | --- | --- | --- | --- |
| CC(C)n1c(=O)n(C)c2cnc3cc(F)c(-c4ccc(OCCCN5CCCCC5)nc4)cc3c21 + CC[C@@]1(O)C(=O)OCc2c1cc1n(c2=O)Cc2cc3c(CN(C)C)c(O)ccc3nc2-1 | 5.40 | > 7.50 | > 7.50 | > 7.50 | > 7.50 | 82.7 | 76 | 80 | 77.3 | 54.7 | 30.8 | 50.8 | 46.3 | 45.3 | 44.5 | 37.3 | 20.5 | 30.3 | 27.4 | 31.4 | viability, T/C [16]: 26.9%; viability, T/C [17]: 27.5%; viability, T/C [18]: 11.9%; viability, T/C [19]: 6.85%; viability, T/C [20]: 6.85%; viability, T/C [21]: 7.33%; viability, T/C [22]: 7.9%; viability, T/C [23]: 8.2%; viability, T/C [24]: 7.69%; viability, T/C [25]: 4.4%; viability, T/C [26]: 4.06%; viability, T/C [27]: 3.67%; viability, T/C [28]: 3.49%; viability, T/C [29]: 3.07%; viability, T/C [30]: 2.74% |
| CC1COCCN1c1cc(-c2ccnn2C)c2ccnc(-c3ccn[nH]3)c2n1 (stereo not given) + CC[C@@]1(O)C(=O)OCc2c1cc1n(c2=O)Cc2cc3c(CN(C)C)c(O)ccc3nc2-1 | 7.25 | > 7.50 | > 7.50 | > 7.50 | > 7.50 | 63.9 | 35.5 | 22.4 | 12.1 | 6.47 | 6.01 | 40.4 | 27.1 | 21.2 | 8.86 | 5.91 | 5.08 | 22.6 | 16.9 | 12.8 | viability, T/C [16]: 6.37%; viability, T/C [17]: 4.95%; viability, T/C [18]: 4.49%; viability, T/C [19]: 8.54%; viability, T/C [20]: 7.09%; viability, T/C [21]: 6.46%; viability, T/C [22]: 5.74%; viability, T/C [23]: 4.46%; viability, T/C [24]: 4.49%; viability, T/C [25]: 6.2%; viability, T/C [26]: 5.86%; viability, T/C [27]: 4.85%; viability, T/C [28]: 4.65%; viability, T/C [29]: 4.8%; viability, T/C [30]: 4.19% |
| COc1cc(C)[nH]c(=O)c1CN1CCc2c(Cl)cc(C(OC)C3COC3)c(Cl)c2C1=O (stereo not given) + CC[C@@]1(O)C(=O)OCc2c1cc1n(c2=O)Cc2cc3c(CN(C)C)c(O)ccc3nc2-1 | < 5.00 | 5.29 | > 7.50 | > 7.50 | > 7.50 | 99.6 | 88.8 | 70.9 | 64.2 | 54.9 | 52.5 | 93.2 | 88.8 | 74.5 | 65.5 | 53 | 45.4 | 50.1 | 47.5 | 47.3 | viability, T/C [16]: 46.9%; viability, T/C [17]: 42.3%; viability, T/C [18]: 38.4%; viability, T/C [19]: 8.85%; viability, T/C [20]: 9.47%; viability, T/C [21]: 8.43%; viability, T/C [22]: 8.57%; viability, T/C [23]: 8.44%; viability, T/C [24]: 9.48%; viability, T/C [25]: 6.48%; viability, T/C [26]: 6.48%; viability, T/C [27]: 6.57%; viability, T/C [28]: 6.59%; viability, T/C [29]: 5.96%; viability, T/C [30]: 6.06% |
| COc1ccc([C@@H](O)c2cc(-c3ncnc4cc(N5CCOCC5)ccc34)c(F)cc2Cl)nn1 + CC[C@@]1(O)C(=O)OCc2c1cc1n(c2=O)Cc2cc3c(CN(C)C)c(O)ccc3nc2-1 | 6.02 | 6.21 | 7.10 | > 7.50 | > 7.50 | 94.8 | 93.4 | 71 | 52.6 | 19.9 | 9.59 | 89.4 | 77.2 | 65.4 | 40.6 | 15.8 | 8.03 | 51.3 | 50.9 | 40.5 | viability, T/C [16]: 26.2%; viability, T/C [17]: 13.8%; viability, T/C [18]: 7.2%; viability, T/C [19]: 8.47%; viability, T/C [20]: 9.28%; viability, T/C [21]: 9.08%; viability, T/C [22]: 8.66%; viability, T/C [23]: 7.19%; viability, T/C [24]: 6.29%; viability, T/C [25]: 6.47%; viability, T/C [26]: 6.18%; viability, T/C [27]: 7.16%; viability, T/C [28]: 7.21%; viability, T/C [29]: 6.83%; viability, T/C [30]: 6.76% |
| Cc1cc(C)c(CNC(=O)c2cc(-c3ccc(CN4CCOCC4)cc3)cc3c2cnn3C2CCCC2)c(=O)[nH]1 + CC[C@@]1(O)C(=O)OCc2c1cc1n(c2=O)Cc2cc3c(CN(C)C)c(O)ccc3nc2-1 | < 5.00 | < 5.00 | > 7.50 | > 7.50 | > 7.50 | 92.3 | 98 | 95 | 98.9 | 103 | 94.8 | 74.2 | 84 | 93.5 | 90 | 86.5 | 62.1 | 37.3 | 39 | 37.3 | viability, T/C [16]: 36.1%; viability, T/C [17]: 38.2%; viability, T/C [18]: 44%; viability, T/C [19]: 5.21%; viability, T/C [20]: 5.14%; viability, T/C [21]: 5.02%; viability, T/C [22]: 5.85%; viability, T/C [23]: 5.97%; viability, T/C [24]: 6.03%; viability, T/C [25]: 5.75%; viability, T/C [26]: 5.52%; viability, T/C [27]: 4.6%; viability, T/C [28]: 5.28%; viability, T/C [29]: 5.46%; viability, T/C [30]: 5.71% |
| [2H]c1nc(C)nc([2H])c1-c1cc(NC[C@@H](C)c2cccc3c(C(=O)NC)ccnc23)ncn1 + CC[C@@]1(O)C(=O)OCc2c1cc1n(c2=O)Cc2cc3c(CN(C)C)c(O)ccc3nc2-1 | < 5.00 | < 5.00 | 6.69 | > 7.50 | > 7.50 | 101 | 95.9 | 99.5 | 100 | 105 | 100 | 90.1 | 90.6 | 90.6 | 92.4 | 87.3 | 81.6 | 53.3 | 48.2 | 49.9 | viability, T/C [16]: 50.2%; viability, T/C [17]: 46.4%; viability, T/C [18]: 46%; viability, T/C [19]: 9.76%; viability, T/C [20]: 8.96%; viability, T/C [21]: 7.7%; viability, T/C [22]: 8.02%; viability, T/C [23]: 8.96%; viability, T/C [24]: 8.01%; viability, T/C [25]: 6.31%; viability, T/C [26]: 6.82%; viability, T/C [27]: 5.89%; viability, T/C [28]: 5.88%; viability, T/C [29]: 5.82%; viability, T/C [30]: 5.63% |
